We go through 33 compounds from patent US20250145633A1, “SUBSTITUTED FURANOPYRIMIDINE COMPOUNDS AS PDE1 INHIBITORS” (Dart NeuroScience, LLC, priority 2017, published 2025).

A value given as a limit tells only on which side of the number the result lay.

This assay concerns the target human PDE1B enzyme (Homo sapiens (Human), UniProt Q01064). As to the kind of experiment: IMAP TR-FRET PDE1B enzymatic assay. Format: biochemical. The settings on record: negative log of half-maximal molar inhibitory concentration, 200 nM FAM-cAMP, values given as bins; for IC50: read-out: PDE1b (pIC50) (converted). In short, it runs like this:
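Full-length GST-tagged human PDE1B (250 pg/well) in IMAP BSA buffer with 10 U/ml calmodulin and 2.5 mM CaCl2; compound pre-incubated 5 min at room temperature, then 200 nM (final) FAM-cAMP for 30 min. IMAP binding reagent/Tb added, 1 h; TR-FRET 520/490 ratio read. IC50 from sigmoidal dose-response fit.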
A general note: TR-FRET usually uses a lanthanide donor and a delayed reading to cut background.

On to `Cc1oc2ncnc(NC3(C)CC3)c2c1C(=O)n1cc(C(C)C)cn1` [Example 404, 6-Methyl-N-(1-methylcyclopropyl)-5-[4-(propan-2-yl)-1H-pyrazole-1-carbonyl]furo[2,3-d]pyrimidin-4-amine], for which the IC50 was 10 to 100 nM.

Take `Cc1oc2ncnc(NC3(C)CC3)c2c1C(=O)n1cc(-c2ccccc2)cn1` [Example 405, 6-Methyl-N-(1-methylcyclopropyl)-5-(4-phenyl-1H-pyrazole-1-carbonyl)furo[2,3-d]pyrimidin-4-amine]: the IC50 is 100 to 1000 nM. `COc1ccc(-c2cnn(C(=O)c3c(C)oc4ncnc(NC5(C)CC5)c34)c2)cc1` [Example 406, 5-[4-(4-Methoxyphenyl)-1H-pyrazole-1-carbonyl]-6-methyl-N-(1-methylcyclopropyl)furo[2,3-d]pyrimidin-4-amine]: the IC50 was 100 to 1000 nM. Take `Cc1oc2ncnc(NC3(C)CC3)c2c1C(=O)n1cc(-c2ccc(F)cc2)cn1` [Example 407, 5-[4-(4-Fluorophenyl)-1H-pyrazole-1-carbonyl]-6-methyl-N-(1-methylcyclopropyl)furo[2,3-d]pyrimidin-4-amine]: the IC50 was 10 to 100 nM. On the same count and under the same terms, the figure for `Cc1cnn(C(=O)c2c(C)oc3ncnc(NC4(C)CC4)c23)c1` [Example 408, 6-Methyl-5-(4-methyl-1H-pyrazole-1-carbonyl)-N-(1-methylcyclopropyl)furo[2,3-d]pyrimidin-4-amine] is 100 to 1000 nM. Turning to `Cc1nn(C(=O)c2c(C)oc3ncnc(NC4(C)CC4)c23)c(C)c1C` [Example 409, 6-Methyl-N-(1-methylcyclopropyl)-5-(trimethyl-1H-pyrazole-1-carbonyl)furo[2,3-d]pyrimidin-4-amine], the IC50 was 10 to 100 nM.

In the case of `Cc1oc2ncnc(NC3(C)CC3)c2c1C(=O)n1cccn1` [Example 410, 6-Methyl-N-(1-methylcyclopropyl)-5-(1H-pyrazole-1-carbonyl)furo[2,3-d]pyrimidin-4-amine], the IC50 was 100 to 1000 nM. Turning to `Cc1cc(C)n(C(=O)c2c(C)oc3ncnc(NC4(C)CC4)c23)n1` [Example 411, 5-(3,5-Dimethyl-1H-pyrazole-1-carbonyl)-6-methyl-N-(1-methylcyclopropyl)furo[2,3-d]pyrimidin-4-amine], the IC50 is 10 to 100 nM. `COc1cccc(-c2cnn(C(=O)c3c(C)oc4ncnc(NC5(C)CC5)c34)c2)c1` [Example 412, 5-[4-(3-Methoxyphenyl)-1H-pyrazole-1-carbonyl]-6-methyl-N-(1-methylcyclopropyl)furo[2,3-d]pyrimidin-4-amine]: the IC50 was 10 to 100 nM. `Cc1oc2ncnc(NC3(C)CC3)c2c1C(=O)NCC1(C)CC1` [Example 413, 6-Methyl-4-[(1-methylcyclopropyl)amino]-N-[(1-methylcyclopropyl)methyl]furo[2,3-d]pyrimidine-5-carboxamide]: the IC50 was 10 to 100 nM. For the compound `Cc1oc2ncnc(NC3(C)CC3)c2c1C(=O)N1CCC(Cc2ccc(F)cc2)C1` (stereo not drawn) [Example 414, 5-{3-[(4-Fluorophenyl)methyl]pyrrolidine-1-carbonyl}-6-methyl-N-(1-methylcyclopropyl)furo[2,3-d]pyrimidin-4-amine], the IC50 is 10 to 100 nM. `Cc1nn(C(=O)c2c(C)oc3ncnc(NC4(C)CC4)c23)c(C)c1CN1CCOCC1` [Example 415, 5-[3,5-Dimethyl-4-(morpholin-4-ylmethyl)-1H-pyrazole-1-carbonyl]-6-methyl-N-(1-methylcyclopropyl)furo[2,3-d]pyrimidin-4-amine]: the IC50 was 10 to 100 nM. Turning to `Cc1oc2ncnc(NC3(C)CC3)c2c1C(=O)Nc1ccn(C)n1` [Example 416, 6-Methyl-N-(1-methyl-1H-pyrazol-3-yl)-4-[(1-methylcyclopropyl)amino]furo[2,3-d]pyrimidine-5-carboxamide], the IC50 is 10 to 100 nM. On the same count and under the same terms, then `Cc1oc2ncnc(NC3(C)CC3)c2c1C(=O)Nc1cnn(C)c1C` [Example 417, N-(1,5-Dimethyl-1H-pyrazol-4-yl)-6-methyl-4-[(1-methylcyclopropyl)amino]furo[2,3-d]pyrimidine-5-carboxamide], with 10 to 100 nM; and `Cc1nn(C)c(C)c1NC(=O)c1c(C)oc2ncnc(NC3(C)CC3)c12` [Example 418, 6-Methyl-4-[(1-methylcyclopropyl)amino]-N-(trimethyl-1H-pyrazol-4-yl)furo[2,3-d]pyrimidine-5-carboxamide], with 10 to 100 nM. Take `Cc1oc2ncnc(NC3(C)CC3)c2c1C(=O)Nc1cnn(-c2ccccn2)c1` [Example 419, 6-Methyl-4-[(1-methylcyclopropyl)amino]-N-[1-(pyridin-2-yl)-1H-pyrazol-4-yl]furo[2,3-d]pyrimidine-5-carboxamide]: the IC50 is 10 to 100 nM. Regarding `COCCn1nc(C)c(NC(=O)c2c(C)oc3ncnc(NC4(C)CC4)c23)c1C` [Example 420, N-[1-(2-Methoxyethyl)-3,5-dimethyl-1H-pyrazol-4-yl]-6-methyl-4-[(1-methylcyclopropyl)amino]furo[2,3-d]pyrimidine-5-carboxamide], the IC50 is 10 to 100 nM.

For `Cc1oc2ncnc(NC3(C)CC3)c2c1C(=O)Nc1cnn(CCN2CCOCC2)c1` [Example 421, 6-Methyl-4-[(1-methylcyclopropyl)amino]-N-{1-[2-(morpholin-4-yl)ethyl]-1H-pyrazol-4-yl}furo[2,3-d]pyrimidine-5-carboxamide], the IC50 is 10 to 100 nM.

As to `COc1cccc(C2CCN(C(=O)c3c(C)oc4ncnc(NC5(C)CC5)c34)CC2)n1` [Example 422, 5-[4-(6-Methoxypyridin-2-yl)piperidine-1-carbonyl]-6-methyl-N-(1-methylcyclopropyl)furo[2,3-d]pyrimidin-4-amine], the “PDE1b (pIC50)” value is listed as more than 8.

As for `COc1cnc(C2CCN(C(=O)c3c(C)oc4ncnc(NC5(C)CC5)c34)CC2)nc1C` [Example 423, 5-[4-(5-Methoxy-4-methylpyrimidin-2-yl)piperidine-1-carbonyl]-6-methyl-N-(1-methylcyclopropyl)furo[2,3-d]pyrimidin-4-amine], the IC50 is 10 to 100 nM. `Cc1oc2ncnc(NC3(C)CC3)c2c1C(=O)N1CCc2c(nc(-c3ccc(F)cc3)[nH]c2=O)C1` [Example 424, 2-(4-Fluorophenyl)-7-{6-methyl-4-[(1-methylcyclopropyl)amino]furo[2,3-d]pyrimidine-5-carbonyl}-3H,4H,5H,6H,7H,8H-pyrido[3,4-d]pyrimidin-4-one]: the IC50 was 10 to 100 nM.

As to `COCc1nc2c(c(=O)[nH]1)CCN(C(=O)c1c(C)oc3ncnc(NC4(C)CC4)c13)C2` [Example 425, 2-(Methoxymethyl)-7-{6-methyl-4-[(1-methylcyclopropyl)amino]furo[2,3-d]pyrimidine-5-carbonyl}-3H,4H,5H,6H,7H,8H-pyrido[3,4-d]pyrimidin-4-one], the IC50 was 100 to 1000 nM. For the compound `Cc1cccc(NC(=O)c2c(C)oc3ncnc(NC4(C)CC4)c23)n1` [Example 426, 6-Methyl-4-[(1-methylcyclopropyl)amino]-N-(6-methylpyridin-2-yl)furo[2,3-d]pyrimidine-5-carboxamide], the IC50 was 10 to 100 nM. For the compound `Cc1ccnc(NC(=O)c2c(C)oc3ncnc(NC4(C)CC4)c23)c1` [Example 427, 6-Methyl-4-[(1-methylcyclopropyl)amino]-N-(4-methylpyridin-2-yl)furo[2,3-d]pyrimidine-5-carboxamide], the IC50 is 100 to 1000 nM. Consider `Cc1cccnc1NC(=O)c1c(C)oc2ncnc(NC3(C)CC3)c12` [Example 428, 6-Methyl-4-[(1-methylcyclopropyl)amino]-N-(3-methylpyridin-2-yl)furo[2,3-d]pyrimidine-5-carboxamide], for which the IC50 was 100 to 1000 nM.

As to `COCCn1cc(NC(=O)c2c(C)oc3ncnc(NC4(C)CC4)c23)cn1` [Example 429, N-[1-(2-Methoxyethyl)-1H-pyrazol-4-yl]-6-methyl-4-[(1-methylcyclopropyl)amino]furo[2,3-d]pyrimidine-5-carboxamide], the IC50 was 10 to 100 nM.

For `Cc1oc2ncnc(NC3(C)CC3)c2c1C(=O)NC12CC(C1)C2` [Example 430, N-{Bicyclo[1.1.1]pentan-1-yl}-6-methyl-4-[(1-methylcyclopropyl)amino]furo[2,3-d]pyrimidine-5-carboxamide], the IC50 was 10 to 100 nM. For `Cc1oc2ncnc(NC3(C)CC3)c2c1C(=O)N1CCC(c2ncc(C(F)(F)F)cn2)CC1` [Example 431, 6-Methyl-N-(1-methylcyclopropyl)-5-{4-[5-(trifluoromethyl)pyrimidin-2-yl]piperidine-1-carbonyl}furo[2,3-d]pyrimidin-4-amine], the IC50 was 10 to 100 nM. Take `Cc1cn(C)nc1NC(=O)c1c(C)oc2ncnc(NC3(C)CC3)c12` [Example 432, N-(1,4-Dimethyl-1H-pyrazol-3-yl)-6-methyl-4-[(1-methylcyclopropyl)amino]furo[2,3-d]pyrimidine-5-carboxamide]: the IC50 was 10 to 100 nM. Take `Cc1nc(NC(=O)c2c(C)oc3ncnc(NC4(C)CC4)c23)sc1C` [Example 433, N-(Dimethyl-1,3-thiazol-2-yl)-6-methyl-4-[(1-methylcyclopropyl)amino]furo[2,3-d]pyrimidine-5-carboxamide]: the IC50 is 10 to 100 nM. For `Cc1ccc(NC(=O)c2c(C)oc3ncnc(NC4(C)CC4)c23)nn1` [Example 434, 6-Methyl-4-[(1-methylcyclopropyl)amino]-N-(6-methylpyridazin-3-yl)furo[2,3-d]pyrimidine-5-carboxamide], the IC50 is 100 to 1000 nM.

As to `Cc1oc2ncnc(NC3(C)CC3)c2c1C(=O)Nc1cn(C)cn1` [Example 435, 6-Methyl-N-(1-methyl-1H-imidazol-4-yl)-4-[(1-methylcyclopropyl)amino]furo[2,3-d]pyrimidine-5-carboxamide], the IC50 is 100 to 1000 nM. On to `Cc1nc(NC(=O)c2c(C)oc3ncnc(NC4(C)CC4)c23)ccc1F` [Example 436, N-(5-Fluoro-6-methylpyridin-2-yl)-6-methyl-4-[(1-methylcyclopropyl)amino]furo[2,3-d]pyrimidine-5-carboxamide], for which the IC50 is 10 to 100 nM.
